Results taken from US20040242426A1, “New derivatives of substituted anilined with herbicidal activity” (priority 2001, published 2004).

Legend:
Format in all cases: in vivo
Galium aparine (GA) = assay: Herbicidal activity in pre-emergence; conditions: dose 500 g/ha, 28 days after treatment, damage scale 0-5 vs blank
Experimental: (§1) Determination of the herbicidal activity and phytotoxicity in pre-emergence. The herbicidal activity of the compounds of the invention in pre-emergence was evaluated according to the following operating procedure. The vegetable species of interest (weeds or crops) were planted in vases having a diameter of over 10 cm, a height of 10 cm and containing sandy soil. 10 vases were used for each vegetable species. The vases were divided into a further two groups each containing 5 vases for each weed or crop. 24 hours after planting, the vases were dampened with a light shower. An hour after wetting, the first group of vases was treated with a hydro-acetone dispersion containing acetone at 10% v, the product to be evaluated at the desired concentration and Tween 20 at 0.5%. The second group was only treated with a hydroacetone solution containing acetone at 10% by volume and Tween 20 at 0.5%, and was used as a comparison (blank). After the treatment, all the vases were uniformly watered and kept in a conditioned environment under the following environmental conditions: temperature: 24° C. relative humidity: 60% photoperiod: 16 hours light intensity: 10,000 lux 28 days after treatment, the herbicidal activity was evaluated on the basis of the following scale of values referring to the percentage of damage measured on the treated plants with respect to those not treated (blank): Table 3 indicates the results obtained with compounds C-1, C-2 and C-3, evaluated at a dose of 500 g/ha on the following vegetable species: Amarantus retroflexus (AR), Capsella bursa pastoris (CP), Chenopodium album (CA), Galium aparine (GA), Matricaria chamomilla (MC), Papaver rhoeas (PR), Portulaca oleracea (PO), Stellaria media (SM), Alopecurus myosuroides (AM), Panicum dicothomiflorum (PD), maize (M), wheat (F).

[1] = system: Amarantus retroflexus (AR); assay: Herbicidal activity in pre-emergence; conditions: dose 500 g/ha, 28 days after treatment, damage scale 0-5 vs blank
Experimental: as §1

[2] = system: Capsella bursa pastoris (CP); assay: Herbicidal activity in pre-emergence; conditions: dose 500 g/ha, 28 days after treatment, damage scale 0-5 vs blank
Experimental: as §1

Stellaria media (SM) = assay: Herbicidal activity in pre-emergence; conditions: dose 500 g/ha, 28 days after treatment, damage scale 0-5 vs blank
Experimental: as §1

Papaver rhoeas (PR) = assay: Herbicidal activity in pre-emergence; conditions: dose 500 g/ha, 28 days after treatment, damage scale 0-5 vs blank
Experimental: as §1

[3] = system: Panicum dicothomiflorum (PD); assay: Herbicidal activity in pre-emergence; conditions: dose 500 g/ha, 28 days after treatment, damage scale 0-5 vs blank
Experimental: as §1

Chenopodium album (CA) = assay: Herbicidal activity in pre-emergence; conditions: dose 500 g/ha, 28 days after treatment, damage scale 0-5 vs blank
Experimental: as §1

Portulaca oleracea (PO) = assay: Herbicidal activity in pre-emergence; conditions: dose 500 g/ha, 28 days after treatment, damage scale 0-5 vs blank
Experimental: as §1

[4] = system: Matricaria chamomilla (MC); assay: Herbicidal activity in pre-emergence; conditions: dose 500 g/ha, 28 days after treatment, damage scale 0-5 vs blank
Experimental: as §1

[5] = system: Alopecurus myosuroides (AM); assay: Herbicidal activity in pre-emergence; conditions: dose 500 g/ha, 28 days after treatment, damage scale 0-5 vs blank
Experimental: as §1

wheat (F) = assay: Phytotoxicity in pre-emergence; conditions: wheat (crop), dose 500 g/ha, 28 days after treatment, damage scale 0-5 vs blank
Experimental: (§2) Determination of the herbicidal activity and phytotoxicity in pre-emergence. The herbicidal activity of the compounds of the invention in pre-emergence was evaluated according to the following operating procedure. The vegetable species of interest (weeds or crops) were planted in vases having a diameter of over 10 cm, a height of 10 cm and containing sandy soil. 10 vases were used for each vegetable species. The vases were divided into a further two groups each containing 5 vases for each weed or crop. 24 hours after planting, the vases were dampened with a light shower. An hour after wetting, the first group of vases was treated with a hydro-acetone dispersion containing acetone at 10% v, the product to be evaluated at the desired concentration and Tween 20 at 0.5%. The second group was only treated with a hydroacetone solution containing acetone at 10% by volume and Tween 20 at 0.5%, and was used as a comparison (blank). […]

maize (M) = assay: Phytotoxicity in pre-emergence; conditions: maize (crop), dose 500 g/ha, 28 days after treatment, damage scale 0-5 vs blank
Experimental: as §2

| Structure (SMILES) | Herbicidal activity in pre-emergence, GA (Galium aparine (GA)) | Herbicidal activity in pre-emergence, AR [1] | Herbicidal activity in pre-emergence, CP [2] | Herbicidal activity in pre-emergence, SM (Stellaria media (SM)) | Herbicidal activity in pre-emergence, PR (Papaver rhoeas (PR)) | Herbicidal activity in pre-emergence, PD [3] | Herbicidal activity in pre-emergence, CA (Chenopodium album (CA)) | Herbicidal activity in pre-emergence, PO (Portulaca oleracea (PO)) | Herbicidal activity in pre-emergence, MC [4] | Herbicidal activity in pre-emergence, AM [5] | Herbicidal activity (phytotoxicity) in pre-emergence, F (wheat (F)) | Herbicidal activity (phytotoxicity) in pre-emergence, M (maize (M)) |
| --- | --- | --- | --- | --- | --- | --- | --- | --- | --- | --- | --- | --- |
| Cc1ccc(NC(=O)C2CC2)c(OCc2cccc(C(F)(F)F)c2)c1 [C-1, N-[4-methyl-2-(3-trifluoromethylphenyl)-methoxyphenyl]cyclopropanecarboxamide] | 5 (5=90% damage—death of the plant) | 5 (5=90% damage—death of the plant) | 5 (5=90% damage—death of the plant) | 5 (5=90% damage—death of the plant) | 5 (5=90% damage—death of the plant) | 5 (5=90% damage—death of the plant) | 5 (5=90% damage—death of the plant) | 5 (5=90% damage—death of the plant) | 5 (5=90% damage—death of the plant) | 5 (5=90% damage—death of the plant) |  |  |
| Cc1ccc(NC(=O)C2CC2)c(COc2cccc(C(F)(F)F)c2)c1 [C-2, N-[4-methyl-2-(3-trifluoromethylphenoxy)methylphenyl]cyclopropanecarboxamide] | 5 (5=90% damage—death of the plant) | 5 (5=90% damage—death of the plant) | 5 (5=90% damage—death of the plant) | 5 (5=90% damage—death of the plant) | 5 (5=90% damage—death of the plant) | 5 (5=90% damage—death of the plant) | 5 (5=90% damage—death of the plant) | 5 (5=90% damage—death of the plant) | 5 (5=90% damage—death of the plant) | 5 (5=90% damage—death of the plant) | 0 (0=0-9% damage) | 0 (0=0-9% damage) |
